Where no end group is shown, it is not given here.
What was measured:
[1] = motor activity of mouse after administration to lateral ventricle; type: in vivo, ICR male mice; conditions: for rearing behavior (increasing tendency) / spontaneous motor activity / rearing behavior: lateral ventricle, mouse
Experimental: The effects of administration of […] to mouse lateral ventricle on motor activity were studied. The mature ICR male mice (weight at operation: about 35 g) were anesthetized by intraperitoneal administration of 50 mg/kg of pentobarbital, and then fixed on a stereotaxic apparatus. The skull of a said mouse was exposed, then a hole was made by dental drill for guide-cannulization into the left lateral ventricle. The tip of a stainless-steel guide-cannula (24 G, length: 5 mm) for drug injection to lateral ventricle, was inserted to the position of AP: +0.6 mm (from bregma), L: left 1 mm and H: −1 mm (from dura matter). The guide-cannula was fixed onto the skull with adhesive. The cannula-implanted mice were housed as described above and were used for behavioral analysis at least 3 days after the operation.
Motor activity such as spontaneous motor activity and rearing was measured while each mouse was in a transparent acrylic cage (24×37×30 cm) within a soundproofed, illuminated (light up: at 6-18 o'clock) box. Tap water and laboratory chow were available ad libitum. Motor activity was measured by means of a Supermex (Muromachi Kikai). Drugs and PBS were administered at 2:30±30 p.m. At the administration, a stainless-steel micro-injection cannula (30 G, length: 6 mm) was inserted into the guide-cannula. The micro-injection cannula was connected to a microsyringe pump with Teflon tube, and injection of PBS or a peptide dissolved in PBS lasted for 2 minutes at a speed of 2 μl/min. The micro-injection cannula was withdrawn after over a period of 2 minutes from end of injection, then motor activity was meausred.
(§1) The results are expressed as a mean±S.E.M. Student's t test was used to determine the significance of differences between values from the mice treated with a peptide and the PBS-injected controls. For the purpose of this analysis, p<0.05 was assumed to be the minimal level of significance.

[2] = reserpine-induced hypothermia in mice; type: in vivo, ICR male mice; conditions: lateral ventricle
Experimental: The mature ICR male mice (weight at operation: about 35 g) were anesthetized by administration of pentobarbital (50 mg/kg, i.p.), and then fixed on stereotaxic apparatus. The skull of a said mouse was exposed, then a hole was made by dental drill for guide-cannulization into the left lateral ventricle. The tip of a stainless-steel guide-cannula (24 G, length: 5 mm) for drug injection to lateral ventricle, was inserted to the position of AP: +0.6 mm (from bregma), L: left 1 mm and H: −1 mm (from dura matter). The guide-cannula was fixed onto the skull with adhesive. The cannula-implanted mice were housed as described above and were used for measurements of body temperature at least 3 days after the operation. Reserpine (Apoplon; Daiichi Pharmaceutical) was administered to mice at a dose of 3 mg/kg, s.c., and after 15 hours, each mouse was placed in a cage for the measurement. Then a stainless-steel micro-injection cannula (30 G, length: 6 mm) was inserted into the guide-cannula. The micro-injection cannula was connected to a microsyringe pump with Teflon tube, and injection of PBS or a peptide dissolved in PBS lasted for 2 minutes at a speed of 1 μl/min. The micro-injection cannula was withdrawn after over a period of 2 minutes from end of injection, than the temperature in rectum was measured.
as §1

Ser-Arg-Ala-His-Gln-His-Ser-Met-Glu-Ile-Arg-Thr-Pro-Asp-Ile-Asn-Pro-Ala-Trp-Tyr-Ala-Gly-Arg-Gly-Ile-Arg-Pro-Val-Gly-Arg-Phe-NH2 (SRAHQHSMEIRTPDINPAWYAGRGIRPVGRF-NH2) [19P2-L31, synthetic ligand polypeptide]
rearing behavior (increasing tendency) ([1]; 0.01 nmol): not statistically significant
spontaneous motor activity ([1]; 0.01 nmol, at 20 min and 40 min after injection): significant increase
rearing behavior (increasing tendency) ([1]; 0.1 nmol): not statistically significant
spontaneous motor activity ([1]; 0.1 nmol, at 25 min, 40 min and 70 min after injection): significant increase
spontaneous motor activity ([1]; 1 nmol): did not cause statistically significant change
rearing behavior ([1]; 1 nmol, at only 105 min after injection): significant decrease
rearing behavior ([1]; 10 nmol): significant variation
spontaneous motor activity ([1]; 10 nmol): significant increase
amount of activity (motor activity) ([1]; 0.01-10 nmol, lateral ventricle of mice, summary): an increase in the amount of activity was found
temperature variation versus PBS-injected control ([2]; 1 nmol, reserpine-treated mice): no statistically significant difference
body temperature lowered by reserpine ([2]; 10 nmol, mice, 15 hours after reserpine 3 mg/kg s.c., versus PBS): increased significantly
time of maximum increase of body temperature after administration ([2]; 10 nmol, reserpine-treated mice): 45 min

Reference: patent US6794491B1, “Polypeptides, their production and use” (Takeda Chemical Industries, Ltd., priority 1995, dated 2004)
